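48-hour exposure; five concentrations; linearly interpolated endpoints. Here, GI50 denotes the concentration required for 50% inhibition of growth. TGI: concentration producing complete growth inhibition.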
Legend:
Test in all cases: NCI tumour cell line growth inhibition, 48 h
[1] = tested on: 786-0 renal
[2] = tested on: A498 renal
[3] = tested on: A549 NSCLC
[4] = tested on: ACHN renal
[5] = tested on: BT-549 breast
[6] = tested on: CAKI-1 renal
[7] = tested on: CCRF-CEM leukemia
[8] = tested on: COLO 205 colon
[9] = tested on: DU-145 prostate
[10] = tested on: EKVX NSCLC
[11] = tested on: HCC-2998 colon
[12] = tested on: HCT-116 colon
[13] = tested on: HCT-15 colon
[14] = tested on: HL-60(TB) leukemia
[15] = tested on: HOP-62 NSCLC
[16] = tested on: HOP-92 NSCLC
[17] = tested on: HS 578T breast
[18] = tested on: HT29 colon
[19] = tested on: IGROV1 ovarian
[20] = tested on: K-562 leukemia
[21] = tested on: KM12 colon
[22] = tested on: LOX IMVI melanoma
[23] = tested on: M14 melanoma
[24] = tested on: MALME-3M melanoma
[25] = tested on: MCF7 breast
[26] = tested on: MDA-MB-231 breast
[27] = tested on: MDA-MB-435
[28] = tested on: MDA-MB-468 breast
[29] = tested on: MOLT-4 leukemia
[30] = tested on: NCI-H226 lung
[31] = tested on: NCI-H23 lung
[32] = tested on: NCI-H460 lung
[33] = tested on: NCI-H522 lung
[34] = tested on: NCI/ADR-RES ovarian
[35] = tested on: OVCAR-3 ovarian
[36] = tested on: OVCAR-4 ovarian
[37] = tested on: OVCAR-5 ovarian
[38] = tested on: OVCAR-8 ovarian
[39] = tested on: PC-3 prostate
[40] = tested on: RPMI-8226 leukemia
[41] = tested on: RXF 393 renal
[42] = tested on: SF-268 CNS
[43] = tested on: SF-295 CNS
[44] = tested on: SF-539 CNS
[45] = tested on: SK-MEL-2 melanoma
[46] = tested on: SK-MEL-28 melanoma
[47] = tested on: SK-MEL-5 melanoma
[48] = tested on: SK-OV-3 ovarian
[49] = tested on: SN12C renal
[50] = tested on: SNB-19 CNS
[51] = tested on: SNB-75 CNS
[52] = tested on: SR leukemia
[53] = tested on: SW-620 colon
[54] = tested on: T-47D breast
[55] = tested on: TK-10 renal
[56] = tested on: U251 CNS
[57] = tested on: UACC-257 melanoma
[58] = tested on: UACC-62 melanoma
[59] = tested on: UO-31 renal

SMILES: CN(C(=O)c1ccc(C(C)(C)C)cc1)c1sc2c(c1C#N)CCC(=O)C2
- GI50 [1]: 3.72 µM
- TGI [1]: 13.3 µM
- GI50 [2]: 15.4 µM
- TGI [2]: 29.4 µM
- GI50 [3]: 16.8 µM
- TGI [3]: 35.3 µM
- GI50 [4]: 3.2 µM
- TGI [4]: 10.5 µM
- GI50 [5]: 1.98 µM
- TGI [5]: 4.88 µM
- GI50 [6]: 3.8 µM
- TGI [6]: 17.6 µM
- GI50 [7]: 3.34 µM
- TGI [7]: 10.4 µM
- GI50 [8]: 19.6 µM
- TGI [8]: 37.2 µM
- GI50 [9]: 16.7 µM
- TGI [9]: 33.4 µM
- GI50 [10]: 3.49 µM
- TGI [10]: 14 µM
- GI50 [11]: 5.09 µM
- TGI [11]: 16.6 µM
- GI50 [12]: 2.08 µM
- TGI [12]: 4.91 µM
- GI50 [13]: 2.04 µM
- TGI [13]: 4.13 µM
- GI50 [14]: 8.84 µM
- TGI [14]: 30.3 µM
- GI50 [15]: 15.2 µM
- TGI [15]: 32.1 µM
- GI50 [16]: 3.51 µM
- TGI [16]: 15.7 µM
- GI50 [17]: 3.89 µM
- TGI [17]: 28.1 µM
- GI50 [18]: 17.8 µM
- TGI [18]: 41 µM
- GI50 [19]: 11.7 µM
- TGI [19]: 25 µM
- GI50 [20]: 3.17 µM
- TGI [20]: 10.7 µM
- GI50 [21]: 3.97 µM
- TGI [21]: 14.6 µM
- GI50 [22]: 2.11 µM
- TGI [22]: 5.2 µM
- GI50 [23]: 3.57 µM
- TGI [23]: 12.8 µM
- GI50 [24]: 12.6 µM
- TGI [24]: 26.2 µM
- GI50 [25]: 11.8 µM
- TGI [25]: 32 µM
- GI50 [26]: 2.84 µM
- TGI [26]: 8.49 µM
- GI50 [27]: 5.8 µM
- TGI [27]: 21.1 µM
- GI50 [28]: 2.27 µM
- TGI [28]: 5.63 µM
- GI50 [29]: 4.21 µM
- TGI [29]: 23.5 µM
- GI50 [30]: 14.1 µM
- TGI [30]: 38.1 µM
- GI50 [31]: 2.42 µM
- TGI [31]: 6.56 µM
- GI50 [32]: 13.1 µM
- TGI [32]: 27.5 µM
- GI50 [33]: 1.75 µM
- TGI [33]: 3.45 µM
- GI50 [34]: 2.68 µM
- TGI [34]: 7.44 µM
- GI50 [35]: 2.43 µM
- TGI [35]: 5.9 µM
- GI50 [36]: 2.64 µM
- TGI [36]: 8.45 µM
- GI50 [37]: 14 µM
- TGI [37]: 27.6 µM
- GI50 [38]: 9.16 µM
- TGI [38]: 39.6 µM
- GI50 [39]: 2.72 µM
- TGI [39]: 8.32 µM
- GI50 [40]: 2.93 µM
- GI50 [41]: 1.96 µM
- TGI [41]: 4.53 µM
- GI50 [42]: 4.79 µM
- TGI [42]: 24.3 µM
- GI50 [43]: 3.45 µM
- TGI [43]: 14 µM
- GI50 [44]: 1.77 µM
- TGI [44]: 3.42 µM
- GI50 [45]: 14.5 µM
- TGI [45]: 28.7 µM
- GI50 [46]: 11.2 µM
- TGI [46]: 23.9 µM
- GI50 [47]: 2.07 µM
- TGI [47]: 4.63 µM
- GI50 [48]: 17.9 µM
- TGI [48]: 34.1 µM
- GI50 [49]: 14 µM
- TGI [49]: 27.2 µM
- GI50 [50]: 3.7 µM
- TGI [50]: 14.7 µM
- GI50 [51]: 6.94 µM
- TGI [51]: 24.4 µM
- GI50 [52]: 2.28 µM
- TGI [52]: 7.1 µM
- GI50 [53]: 2.06 µM
- TGI [53]: 4.17 µM
- GI50 [54]: 1.83 µM
- TGI [54]: 4.07 µM
- GI50 [55]: 10.4 µM
- TGI [55]: 23 µM
- GI50 [56]: 1.82 µM
- TGI [56]: 3.9 µM
- GI50 [57]: 18 µM
- TGI [57]: 33.7 µM
- GI50 [58]: 2.34 µM
- TGI [58]: 6.4 µM
- GI50 [59]: 2.94 µM
- TGI [59]: 11.2 µM

— PubChem BioAssay (NCI)
